Results as given in PubChem BioAssay AID330 (DTP/NCI, 2004).
Several values for one entry are separate records, joined by “and”; a condition that tells them apart may be missing. Equal values may be shown once. Inconclusive results and toxic doses are left out. Rule for the calls: active = survival T/C of 150% or more; inactive = T/C below 125% in these data.

Test system: P388 leukemia ip, CD2F1 mice, survival T/C
Experiment: NCI In Vivo Anticancer Drug Screen. Data for tumor model P388 Leukemia (intraperitoneal) in CD2F1 (CDF1) mice
Settings: endpoint: median survival time, higher = longer survival
Procedure, shortened: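 Mice carrying the transplanted tumor received test compound or vehicle. Survival was recorded in each group, and the value is the treated-group measurement divided by that of the vehicle-treated control group.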

[1] = dose: 50.0 mg/kg/injection, schedule: Q01DX005 (ip), vehicle: Klucel (hydroxypropylcellulose) (HPC)
[2] = dose: 100.0 mg/kg/injection, schedule: Q01DX005 (ip), vehicle: Klucel (hydroxypropylcellulose) (HPC)
[3] = dose: 200.0 mg/kg/injection, schedule: Q01DX005 (ip), vehicle: Klucel (hydroxypropylcellulose) (HPC)
[4] = dose: 60.0 mg/kg/injection, schedule: Q01DX005 (ip), vehicle: Klucel (hydroxypropylcellulose) (HPC)
[5] = dose: 120.0 mg/kg/injection, schedule: Q01DX005 (ip), vehicle: Klucel (hydroxypropylcellulose) (HPC)
[6] = dose: 240.0 mg/kg/injection, schedule: Q01DX005 (ip), vehicle: Klucel (hydroxypropylcellulose) (HPC)
[7] = dose: 60.0 mg/kg/injection, schedule: Q01DX005 (ip), vehicle: saline with Tween-80
[8] = dose: 50.0 mg/kg/injection, schedule: Q01DX007 (ip), vehicle: saline
[9] = dose: 120.0 mg/kg/injection, schedule: Q01DX005 (ip), vehicle: saline with Tween-80
[10] = dose: 240.0 mg/kg/injection, schedule: Q01DX005 (ip), vehicle: saline with Tween-80

Measured: T/C

CN(C)CC/C(Br)=C1/c2ccccc2Sc2ccc(Cl)cc21
inactive: [1] 111 % of control | [2] 98 % of control | [3] 93 % of control

c1ccc(Cc2cccc[n+]2C(c2ccccc2)c2ccccc2)cc1
inactive: dose: 6.25 mg/kg/injection, schedule: Q01DX009 (ip), vehicle: Klucel (hydroxypropylcellulose) (HPC) 105 % of control | dose: 12.5 mg/kg/injection, schedule: Q01DX009 (ip), vehicle: Klucel (hydroxypropylcellulose) (HPC) 87 % of control

O=C(O)c1cnc2cc3c(cc2c1Nc1ccccc1)OCO3
inactive: [4] 99 % of control | [5] 102 % of control | [6] 90 % of control

CC(=O)Nc1ccc(S(=O)(=O)Oc2noc3ccc(Cl)cc23)cc1
inactive: dose: 100.0 mg/kg/injection, schedule: Q04DX002 (ip), vehicle: Klucel (hydroxypropylcellulose) (HPC) 98 % of control | dose: 200.0 mg/kg/injection, schedule: Q04DX002 (ip), vehicle: Klucel (hydroxypropylcellulose) (HPC) 98 % of control | dose: 400.0 mg/kg/injection, schedule: Q04DX002 (ip), vehicle: Klucel (hydroxypropylcellulose) (HPC) 93 % of control

CCN(CC)C(=S)N1C(=O)C2C3CCC(O3)C2C1=O (stereo not given)
inactive: dose: 15.0 mg/kg/injection, schedule: Q01DX005 (ip), vehicle: saline with Tween-80 101 % of control | dose: 30.0 mg/kg/injection, schedule: Q01DX005 (ip), vehicle: saline with Tween-80 104 % of control | [7] 110 % of control

C=[CH][Sn]([Cl])([Cl])[CH]=C.COc1ccc(P(=O)(c2ccc(OC)cc2)c2ccc(OC)cc2)cc1
inactive: dose: 25.0 mg/kg/injection, schedule: Q04DX003 (ip), vehicle: saline 100 % of control and 113 % of control | dose: 50.0 mg/kg/injection, schedule: Q04DX003 (ip), vehicle: saline 100 % of control and 111 % of control | dose: 100.0 mg/kg/injection, schedule: Q04DX003 (ip), vehicle: saline 100 % of control and 115 % of control and 120 % of control | dose: 200.0 mg/kg/injection, schedule: Q04DX003 (ip), vehicle: saline 100 % of control and 111 % of control | dose: 400.0 mg/kg/injection, schedule: Q04DX003 (ip), vehicle: saline 117 % of control

CN(C)N=Nc1cccc(C(F)(F)F)c1
inactive: dose: 25.0 mg/kg/injection, schedule: Q01DX008 (ip), vehicle: saline with Tween-80 104 % of control | [8] 120 % of control | dose: 50.0 mg/kg/injection, schedule: Q01DX008 (ip), vehicle: saline with Tween-80 101 % of control | dose: 100.0 mg/kg/injection, schedule: Q01DX008 (ip), vehicle: saline with Tween-80 101 % of control

C/C(=N\NC(N)=O)c1ccc(Cl)c(-n2cccc2)c1
inactive: [1] 92 % of control | [2] 91 % of control | [3] 94 % of control

CCOP(=O)(O)OCC.[Y]
inactive: dose: 100.0 mg/kg/injection, schedule: Q04DX003 (ip), vehicle: saline with Tween-80 93 % of control | dose: 200.0 mg/kg/injection, schedule: Q04DX003 (ip), vehicle: saline with Tween-80 100 % of control | dose: 400.0 mg/kg/injection, schedule: Q04DX003 (ip), vehicle: saline with Tween-80 111 % of control

Cn1cc(/C=C/[N+](=O)[O-])c2ccc(OCc3ccccc3)cc21
inactive: dose: 100.0 mg/kg/injection, schedule: Q04DX003 (ip), vehicle: Klucel (hydroxypropylcellulose) (HPC) 105 % of control | dose: 200.0 mg/kg/injection, schedule: Q04DX003 (ip), vehicle: Klucel (hydroxypropylcellulose) (HPC) 95 % of control | dose: 400.0 mg/kg/injection, schedule: Q04DX003 (ip), vehicle: Klucel (hydroxypropylcellulose) (HPC) 97 % of control

CC(C)=CCC/C(C)=C\CN(C)C
inactive: dose: 6.25 mg/kg/injection, schedule: Q04DX002 (ip), vehicle: saline with Tween-80 100 % of control | dose: 12.5 mg/kg/injection, schedule: Q04DX002 (ip), vehicle: saline with Tween-80 103 % of control | dose: 25.0 mg/kg/injection, schedule: Q04DX002 (ip), vehicle: saline with Tween-80 94 % of control

ClCc1nnn(Cc2ccccc2)c1CCl
inactive: dose: 50.0 mg/kg/injection, schedule: Q01DX009 (ip), vehicle: saline 102 % of control | dose: 100.0 mg/kg/injection, schedule: Q01DX009 (ip), vehicle: saline 89 % of control | dose: 200.0 mg/kg/injection, schedule: Q01DX009 (ip), vehicle: saline 92 % of control

O=C1NC2Cc3ccccc3C(C2)O1 (stereo not given)
inactive: [7] 101 % of control | [9] 100 % of control | [10] 93 % of control

O=C(O)C1C(C(=O)O)C2(Cl)C(Cl)=C(Cl)C1(Cl)C2(Cl)Cl.[Fe] (stereo not given)
inactive: dose: 6.25 mg/kg/injection, schedule: Q01DX001 (ip), vehicle: saline with Tween-80 100 % of control | dose: 12.5 mg/kg/injection, schedule: Q01DX001 (ip), vehicle: saline with Tween-80 104 % of control | dose: 25.0 mg/kg/injection, schedule: Q01DX001 (ip), vehicle: saline with Tween-80 109 % of control

Nc1nc(N)c2nc(SCc3ccc(Cl)cc3)c(N)nc2n1
inactive: dose: 15.0 mg/kg/injection, schedule: Q01DX005 (ip), vehicle: Klucel (hydroxypropylcellulose) (HPC) 88 % of control | dose: 30.0 mg/kg/injection, schedule: Q01DX005 (ip), vehicle: Klucel (hydroxypropylcellulose) (HPC) 88 % of control | [4] 103 % of control | [5] 88 % of control | [6] 94 % of control

CN(C)C1=NC(NC(C)(C)C)(N(C)C)OC(N(C)C)=N1 (stereo not given)
inactive: dose: 25.0 mg/kg/injection, schedule: Q01DX005 (ip), vehicle: saline 100 % of control | dose: 50.0 mg/kg/injection, schedule: Q01DX005 (ip), vehicle: saline 100 % of control | dose: 100.0 mg/kg/injection, schedule: Q01DX005 (ip), vehicle: saline 104 % of control

C=C1C(=O)OC2/C=C(\C)CC/C=C(/CO)C(OC(=O)C(C)(C)O)C(OC(=O)C(C)C)C12 (stereo not given)
inactive: dose: 5.0 mg/kg/injection, schedule: Q01DX009 (ip), vehicle: other 107 % of control

C=CC(C)(C)c1cc(O)c(OC)cc1O
inactive: [1] 95 % of control | [2] 102 % of control | [3] 100 % of control

COC(=O)c1cc(=O)n2c(nc3ccccc32)s1
inactive: dose: 50.0 mg/kg/injection, schedule: Q01DX005 (ip), vehicle: acetone 108 % of control | dose: 100.0 mg/kg/injection, schedule: Q01DX005 (ip), vehicle: acetone 104 % of control | dose: 200.0 mg/kg/injection, schedule: Q01DX005 (ip), vehicle: acetone 101 % of control

Cc1ccc([C@H]2N[C@@H]2c2ccccn2)cc1
inactive: [7] 98 % of control | [9] 103 % of control

CCOC(=O)C[N+]12CCC34c5cc(OC)c(OC)cc5N5C(=O)CC6OCC=C(C1)C(CC32)C6C54 (stereo not given)
inactive: dose: 1.56 mg/kg/injection, schedule: Q01DX009 (ip), vehicle: saline with Tween-80 100 % of control and 108 % of control | dose: 3.12 mg/kg/injection, schedule: Q01DX009 (ip), vehicle: saline with Tween-80 100 % of control and 108 % of control | dose: 25.0 mg/kg/injection, schedule: Q01DX009 (ip), vehicle: saline with Tween-80 105 % of control (2×) and 94 % of control | dose: 50.0 mg/kg/injection, schedule: Q01DX009 (ip), vehicle: saline with Tween-80 105 % of control and 111 % of control and 95 % of control | dose: 100.0 mg/kg/injection, schedule: Q01DX009 (ip), vehicle: saline with Tween-80 105 % of control and 111 % of control and 98 % of control

O=[N+]([O-])c1ccc(N/N=C(/C(=N/Nc2ccc([N+](=O)[O-])cc2)c2ccccc2)c2ccccc2)cc1
inactive: dose: 25.0 mg/kg/injection, schedule: Q01DX009 (ip), vehicle: other 87 % of control | dose: 50.0 mg/kg/injection, schedule: Q01DX009 (ip), vehicle: other 89 % of control | dose: 100.0 mg/kg/injection, schedule: Q01DX009 (ip), vehicle: other 93 % of control | dose: 100.0 mg/kg/injection, schedule: Q01DX009 (ip), vehicle: saline sonified 90 % of control | dose: 200.0 mg/kg/injection, schedule: Q01DX009 (ip), vehicle: other 93 % of control | dose: 200.0 mg/kg/injection, schedule: Q01DX009 (ip), vehicle: saline sonified 86 % of control | dose: 400.0 mg/kg/injection, schedule: Q01DX009 (ip), vehicle: other 93 % of control | dose: 400.0 mg/kg/injection, schedule: Q01DX009 (ip), vehicle: saline sonified 90 % of control

NC(C(=O)O)C(CC(=O)O)c1ccc(O)cc1 (stereo not given)
inactive: [8] 100 % of control | dose: 100.0 mg/kg/injection, schedule: Q01DX007 (ip), vehicle: saline 100 % of control | dose: 200.0 mg/kg/injection, schedule: Q01DX007 (ip), vehicle: saline 101 % of control

Cc1cc(=O)n2[nH]c(-c3ccc(C(C)(C)C)cc3)cc2n1
inactive: [7] 111 % of control | [9] 109 % of control | [10] 93 % of control
